How the values were obtained:
HeLa = experiment: Antiproliferative activity against human HeLa cells after 24 hrs by MTT assay; type: functional
Homo sapiens = species on record: Homo sapiens; experiment: Selectivity index, ratio of IC50 for COX1 (unknown origin) to IC50 for COX2 (unknown origin)
[1] = Inhibition of mouse B-Raf V600E mutant assessed as as reduction in human N-terminal His-tagged MEK1 phosphorylation pre-incubated with compound for 1 hr
[2] = molecular target: Prostaglandin G/H synthase 1 (Homo sapiens, UniProt P23219); experiment: Inhibition of COX1 (unknown origin) by solid phase ELISA method
Chain of Prostaglandin G/H synthase 1 (P23219 whole entry): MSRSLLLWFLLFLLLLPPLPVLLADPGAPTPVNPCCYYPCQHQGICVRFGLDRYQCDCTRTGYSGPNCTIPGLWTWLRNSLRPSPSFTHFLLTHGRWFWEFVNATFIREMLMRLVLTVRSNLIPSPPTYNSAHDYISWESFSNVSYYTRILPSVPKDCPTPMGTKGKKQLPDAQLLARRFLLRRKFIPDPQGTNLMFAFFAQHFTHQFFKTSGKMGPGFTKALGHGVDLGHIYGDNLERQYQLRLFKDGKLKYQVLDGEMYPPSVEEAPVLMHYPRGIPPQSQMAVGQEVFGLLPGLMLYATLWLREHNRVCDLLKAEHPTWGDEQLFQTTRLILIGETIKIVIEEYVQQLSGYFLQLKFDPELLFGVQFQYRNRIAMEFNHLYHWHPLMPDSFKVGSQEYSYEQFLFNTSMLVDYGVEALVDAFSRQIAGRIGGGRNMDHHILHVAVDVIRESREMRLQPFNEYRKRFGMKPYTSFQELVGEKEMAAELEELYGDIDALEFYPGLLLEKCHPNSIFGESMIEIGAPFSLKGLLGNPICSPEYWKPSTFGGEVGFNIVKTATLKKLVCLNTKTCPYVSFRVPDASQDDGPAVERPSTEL

[3] = Antiproliferative activity against human WM266.4 cells after 24 hrs by MTT assay; type: functional; settings: WM 266-4, 24 h
[4] = molecular target: T1, Prostaglandin G/H synthase 2 (Homo sapiens, UniProt P35354); experiment: Inhibition of COX2 (unknown origin) by solid phase ELISA method
T1 sequence (P35354 whole entry): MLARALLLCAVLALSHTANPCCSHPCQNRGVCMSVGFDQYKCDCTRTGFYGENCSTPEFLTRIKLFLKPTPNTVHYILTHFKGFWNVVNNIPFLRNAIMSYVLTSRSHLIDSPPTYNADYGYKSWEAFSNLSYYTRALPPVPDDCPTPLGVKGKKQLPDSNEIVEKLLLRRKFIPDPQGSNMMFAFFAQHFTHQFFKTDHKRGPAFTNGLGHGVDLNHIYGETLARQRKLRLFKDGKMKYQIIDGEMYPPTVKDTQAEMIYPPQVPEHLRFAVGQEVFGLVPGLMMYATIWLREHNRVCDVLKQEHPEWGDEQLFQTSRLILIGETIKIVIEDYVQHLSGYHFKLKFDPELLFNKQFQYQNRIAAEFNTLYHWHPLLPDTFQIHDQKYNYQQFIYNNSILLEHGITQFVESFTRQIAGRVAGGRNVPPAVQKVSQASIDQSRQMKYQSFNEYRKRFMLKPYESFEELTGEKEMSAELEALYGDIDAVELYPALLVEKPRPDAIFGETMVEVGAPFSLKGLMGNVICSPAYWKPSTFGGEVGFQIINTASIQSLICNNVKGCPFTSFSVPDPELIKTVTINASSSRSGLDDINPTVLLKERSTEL

Row | Compound | GI50 (HeLa) [µM] | Ratio IC50 (Homo sapiens) | IC50 [1] [µM] | IC50 [2] [µM] | GI50 [3] [µM] | IC50 [4] [µM]
1 | Cc1ccc(S(=O)(=O)N2N=C(C(F)(F)F)CC2c2cccc3ccccc23)cc1 (stereo not given) | > 500 | 1.7 | 1.01 | 153 | 1.06 | 
2 | Cc1ccc(S(=O)(=O)N2N=C(C(F)(F)F)CC2c2ccc3c(c2)OCO3)cc1 (stereo not given) | 28.7 | 7 | 2.26 | 3.72 | 1.63 | 
3 | Cc1ccc(S(=O)(=O)N2N=C(C(F)(F)F)CC2c2ccc3ccccc3c2)cc1 (stereo not given) | > 500 | 10.7 | 0.85 | > 500 | 1.01 | 
4 | O=S(=O)(c1ccccc1)N1N=C(C(F)(F)F)CC1c1cccc2c1OCCO2 (stereo not given) | 127 | 3.7 | 5.24 | 100 | 3.87 | 
5 | CS(=O)(=O)c1ccc(N2N=C(C(F)(F)F)CC2c2ccc3ccccc3c2)cc1 (stereo not given) | 63.6 | 2.2 | 0.67 | 38.7 | 0.97 | 
6 | NS(=O)(=O)c1ccc(N2N=C(C(F)(F)F)CC2c2ccc3c(c2)OCCO3)cc1 (stereo not given) | 19.9 | > 500 | 17 | 41.5 | 132 | 
7 | Cc1ccc(S(=O)(=O)N2N=C(C(F)(F)F)CC2c2cccc3c2OCCO3)cc1 (stereo not given) | > 500 | 0.01 | 1.74 | 15.4 | 1.34 | > 500
8 | O=S(=O)(c1ccccc1)N1N=C(C(F)(F)F)CC1c1cccc2ccccc12 (stereo not given) | > 500 | 0.26 | 1.24 | 17.6 | 1.18 | 
9 | CS(=O)(=O)c1ccc(N2N=C(C(F)(F)F)CC2c2ccc3c(c2)OCO3)cc1 (stereo not given) | 27.6 | 411 | 0.49 | 57.5 | 0.89 | 
10 | NS(=O)(=O)c1ccc(N2N=C(C(F)(F)F)CC2c2cccc3ccccc23)cc1 (stereo not given) | 29.5 |  | 8.23 | 17 | 8.91 | 
11 | O=c1[nH]cc(F)c(=O)[nH]1 [FLUOROURACIL] | 30.2 |  |  |  | 28.8 | 
12 | O=S(=O)(c1ccccc1)N1N=C(C(F)(F)F)CC1c1ccc2ccccc2c1 (stereo not given) | > 500 | 0.04 | > 100 | 7.23 | > 500 | 174
13 | CS(=O)(=O)c1ccc(N2N=C(C(F)(F)F)CC2c2cccc3ccccc23)cc1 (stereo not given) | 33.3 |  | 8.53 | 15.2 | 10.6 | 
14 | Cc1ccc(S(=O)(=O)N2N=C(C(F)(F)F)CC2c2cccc3c2OCO3)cc1 (stereo not given) | > 500 |  | 1.11 | 10.4 | 1.08 | 
15 | CS(=O)(=O)c1ccc(N2N=C(C(F)(F)F)CC2c2cccc3c2OCO3)cc1 (stereo not given) | 38.6 | 269 | 9.86 | 10.8 | 16.8 | 
16 | CCCS(=O)(=O)Nc1ccc(F)c(C(=O)c2c[nH]c3ncc(-c4ccc(Cl)cc4)cc23)c1F [VEMURAFENIB] |  |  | 0.06 |  |  | 
17 | CS(=O)(=O)c1ccc(N2N=C(C(F)(F)F)CC2c2cccc3c2OCCO3)cc1 (stereo not given) | 26 |  | 0.12 | 40.6 | 0.76 | 
18 | CS(=O)(=O)c1ccc(N2N=C(C(F)(F)F)CC2c2ccc3c(c2)OCCO3)cc1 (stereo not given) | 23.5 | 270 | 0.89 | 64.9 | 1.12 | 
19 | NS(=O)(=O)c1ccc(N2N=C(C(F)(F)F)CC2c2ccc3c(c2)OCO3)cc1 (stereo not given) |  | > 500 | 3.84 | 19 | 2.47 | 
20 | O=S(=O)(c1ccccc1)N1N=C(C(F)(F)F)CC1c1ccc2c(c1)OCCO2 (stereo not given) | 58.9 | 54 | > 100 | 106 | > 500 | 
21 | O=S(=O)(c1ccccc1)N1N=C(C(F)(F)F)CC1c1cccc2c1OCO2 (stereo not given) | > 500 | 0.14 | 9.46 | 8.75 | 13.6 | 
22 | Cc1ccc(S(=O)(=O)N2N=C(C(F)(F)F)CC2c2ccc3c(c2)OCCO3)cc1 (stereo not given) | 24.8 | 3.5 | 0.25 | 4.63 | 0.83 | 
23 | NS(=O)(=O)c1ccc(N2N=C(C(F)(F)F)CC2c2cccc3c2OCCO3)cc1 (stereo not given) | 26 | > 500 | 0.15 | 34.5 | 0.82 | 
24 | O=S(=O)(c1ccccc1)N1N=C(C(F)(F)F)CC1c1ccc2c(c1)OCO2 (stereo not given) | 34.6 | 2.5 | 2.41 | 14.1 | 1.63 | 
25 | NS(=O)(=O)c1ccc(N2N=C(C(F)(F)F)CC2c2cccc3c2OCO3)cc1 (stereo not given) | 26.2 | 197 | 1.77 | 10 | 1.32 | 
26 | NS(=O)(=O)c1ccc(N2N=C(C(F)(F)F)CC2c2ccc3ccccc3c2)cc1 (stereo not given) | 49.8 | 1.3 | 1.15 | 19 | 1.09 | 

— ChEMBL document CHEMBL3352811, “Novel pyrazoline derivatives as bi-inhibitor of COX-2 and B-Raf in treating cervical carcinoma” (Bioorg Med Chem, 2014)
